Measurements as given in patent US20210330611A1, “THERAPY FOR NEUROLOGICAL DISEASES/DISORDERS” (priority 2020, published 2021).
Structures can show the parent of a compound that is named as a salt. Where two headings read alike, the source gives them in different places.

What was measured:
[1] = tested on: fibrin-induced microglia activation; assay: Image-based assay of fibrin-induced microglia activation (HTS and dose response); type: cell-based, rat; conditions: primary microglia HTS, fibrin stimulation; for inhibition at 10 µM: Rattus norvegicus, Microglia, read-out: Fibrin % inhibition
[2] = tested on: LPS-induced microglia activation; assay: Image-based assay of LPS-induced microglia activation (HTS and dose response); type: cell-based, rat; conditions: for inhibition at 10 µM: Rattus norvegicus, Microglia, read-out: LPS % inhibition
[3] = tested on: fibrin- and LPS-induced microglia activation; assay: cells; type: cell-based, rat
primary rat microglia [4] = tested on: primary rat microglia
primary rat microglia [5] = assay: Cell toxicity (dead cells, size <150 μm2) in coated fibrin (cFib) assay; conditions: primary microglia HTS;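 also: share of dead cells sized under 150 µm2 at 10 µM in fibrin-stimulated microglia HTS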
[6] = cell size >800 μm2 as marker of activation
[7] = classification by fibrin and LPS inhibition in HTS
[8] = fibrin stimulation, cell size <150 μm2 as marker of toxicity
[9] = primary microglia HTS, LPS stimulation, compounds at 10 μM
[10] = classification by fibrin and LPS inhibition, HTS at 10 μM
[11] = fibrin assay, dead cells (size <150 μm2), compounds at 10 μM
[12] = primary microglia HTS, LPS stimulation, compounds at 10 μM, 10 µM
[13] = quadrant by fibrin and LPS inhibition, HTS at 10 μM
[14] = fibrin assay, dead cells (size <150 μm2)

| SMILES | Quadrant (FIG. 5b) [3, 7] | Fibrin % cell toxicity (primary rat microglia [5]; [8]) [%] | inhibition at 10 µM ([1]; compounds at 10 μM) [%] | inhibition at 10 µM [2, 9] [%] | LPS % cell toxicity (primary rat microglia [4]; rat) [%] | Quadrant (FIG. 5b) [3, 13] | Fibrin % cell toxicity (primary rat microglia [5]; [14]) [%] | further results |
| --- | --- | --- | --- | --- | --- | --- | --- | --- |
| C1CCc2nnnn2CC1 [Pentetrazole, Pentylenetetrazol] | Q4 | 1 | – | – | – | – | – | Fibrin % inhibition [1, 6]: −12%; LPS % inhibition [2]: 18%; LPS % cell toxicity (primary rat microglia [4]): 1% |
| N=C(N)c1ccc(/N=N/Nc2ccc(C(=N)N)cc2)cc1 [Diminazene] | – | – | -58 | 11 | 0 | – | – | Quadrant (FIG. 5b) [3, 10]: Q4; Fibrin % cell toxicity (primary rat microglia [5]; [11]): 0% |
| CC(CCc1ccc(O)cc1)NCCc1ccc(O)c(O)c1 (stereo not shown) [Dobutamine Hydrochloride] | – | – | – | – | 0 | – | – | Fibrin % inhibition ([1]; compounds at 10 μM, 10 µM): 22%; LPS % inhibition [2, 12]: 27%; Quadrant (FIG. 5b) [3, 10]: Q4; Fibrin % cell toxicity (primary rat microglia [5]; [11]): 1% |
| CCOP(=S)(OCC)Oc1cc(C)nc(C(C)C)n1 [Diazinon, Dimpylate] | – | – | – | – | – | – | – | Fibrin % inhibition ([1]; compounds at 10 μM): −7%; LPS % inhibition [2, 9]: −8%; Quadrant (FIG. 5b) [3, 10]: Q4; LPS % cell toxicity (primary rat microglia [4]): 0%; Fibrin % cell toxicity (primary rat microglia [5]; [11]): 1% |
| O=C(O)CSCC(=O)NC1CCSC1=O (stereo not shown) [Erdosteine] | – | – | 2 | 13 | 0 | – | – | Quadrant (FIG. 5b) [3, 10]: Q4; Fibrin % cell toxicity (primary rat microglia [5]; [11]): 1% |
| CO[C@H]1/C=C/O[C@@]2(C)Oc3c(C)c(O)c4c(O)c(c5c(nc6cc(C)ccn65)c4c3C2=O)NC(=O)/C(C)=C\C=C\[C@H](C)[C@H](O)[C@@H](C)[C@@H](O)[C@@H](C)[C@H](OC(C)=O)[C@@H]1C [Rifaximin] | Q4 | 0 | – | – | 2 | – | – | inhibition at 10 µM [1, 6]: 6%; inhibition at 10 µM ([2]; 48 h): 22% |
| CC(Cc1cccc(C(F)(F)F)c1)NCCOC(=O)c1ccccc1 (stereo not shown) [Benfluorex] | – | – | -26 | -3 | 0 | Q4 | 1 | – |
| O=C(NCCCN1CCOCC1)c1ccc(Cl)cc1 [Eprobemide] | – | – | -24 | 21 | 0 | – | – | Quadrant (FIG. 5b) [3, 10]: Q4; Fibrin % cell toxicity (primary rat microglia [5]; [11]): 0% |
| CC(O)(CC(=O)O)CC(=O)O [3-Hydroxy-3-Methyl-Glutaric Acid] | – | – | 9 | 8 | 0 | Q4 | 0 | – |
| CCCN1C[C@H](CSC)C[C@@H]2c3cccc4[nH]cc(c34)C[C@H]21 [Pergolide] | Q4 | 0 | – | – | 0 | – | – | inhibition at 10 µM [1, 6]: -18%; inhibition at 10 µM ([2]; 48 h): 16% |
| NNC(=O)c1ccncc1.Nc1ccc(C(=O)O)c(O)c1 [Pasiniazid] | Q4 | 1 | – | – | – | – | – | Fibrin % inhibition [1, 6]: −61%; LPS % inhibition [2]: 17%; LPS % cell toxicity (primary rat microglia [4]): 0% |
| O=c1c2ccccc2[se]n1-c1ccccc1 [Ebselen] | – | – | -49 | -1 | 0 | – | – | Quadrant (FIG. 5b) [3, 10]: Q4; Fibrin % cell toxicity (primary rat microglia [5]; [11]): 0% |
| O=C1CC[C@@]2(O)[C@H]3Cc4ccc(O)c5c4[C@@]2(CCN3CC2CC2)[C@H]1O5 [Naltrexone Hydrochloride] | – | – | 107 | 79 | 2 | Q2 | 4 | – |
| Cc1ccc(N(CC2=NCCN2)c2cccc(O)c2)cc1 [Phentolamine] | Q4 | 0 | – | – | 0 | – | – | inhibition at 10 µM [1, 6]: -21%; inhibition at 10 µM ([2]; 48 h): 17% |
| C[C@]12CCC(=O)C=C1[C@@H]1C[C@@H]1[C@H]1[C@@H]3[C@@H]4C[C@@H]4[C@@]4(CCC(=O)O4)[C@@]3(C)CC[C@@H]12 [Drospirenone] | – | – | 11 | 6 | 1 | – | – | Quadrant (FIG. 5b) [3, 10]: Q4; Fibrin % cell toxicity (primary rat microglia [5]; [11]): 1% |
| O=C(CNC(=O)c1ccc(Cl)cc1)NO [Benurestat] | – | – | – | – | – | Q4 | 1 | Fibrin % inhibition ([1]; compounds at 10 μM): 6%; LPS % inhibition [2, 9]: 22%; LPS % cell toxicity (primary rat microglia [4]): 1% |
| CC(Oc1ccccc1)C(=O)N[C@@H]1C(=O)N2[C@@H]1SC(C)(C)[C@@H]2C(=O)O (stereo partly shown) [Phenethicillin Potassium] | Q4 | 0 | – | – | 0 | – | – | inhibition at 10 µM [1, 6]: -2%; inhibition at 10 µM ([2]; 48 h): 3% |
| C[C@H]1C[C@H]2[C@@H]3CCC4=CC(=O)C=C[C@]4(C)[C@@]3(Cl)[C@@H](O)C[C@]2(C)[C@@]1(O)C(=O)CO [Beclomethasone] | – | – | – | – | – | Q4 | 1 | Fibrin % inhibition ([1]; compounds at 10 μM): −8%; LPS % inhibition [2, 9]: −3%; LPS % cell toxicity (primary rat microglia [4]): 0% |
| CCC1(CC)C(=O)NC(=O)NC1=O [Barbital] | – | – | -5 | 11 | 0 | Q4 | 0 | – |
| CCOc1cc(C=O)ccc1O [Ethyl Vanillin] | – | – | -15 | 18 | 0 | – | – | Quadrant (FIG. 5b) [3, 10]: Q4; Fibrin % cell toxicity (primary rat microglia [5]; [11]): 0% |
| OC1(c2ccc(Cl)c(C(F)(F)F)c2)CCN(CCCC(c2ccc(F)cc2)c2ccc(F)cc2)CC1 [Penfluridol] | Q4 | 1 | – | – | 0 | – | – | inhibition at 10 µM [1, 6]: 3%; inhibition at 10 µM ([2]; 48 h, primary microglia HTS, LPS stimulation, cell size >800 μm2 as marker of activation): 8% |
| O=C1OC(c2ccc(O)cc2)(c2ccc(O)cc2)c2ccccc21 [Phenolphthalein] | Q4 | 1 | – | – | 0 | – | – | inhibition at 10 µM [1, 6]: 10%; inhibition at 10 µM ([2]; 48 h): 13% |
| C/C(=C(\CCOP(=O)(O)O)SC(=O)c1ccccc1)N(C=O)Cc1cnc(C)nc1N [Benfotiamine] | – | – | -47 | 18 | 0 | Q4 | 0 | – |
| CC1(C)S[C@@H]2[C@H](NC(=O)[C@H](NC(=O)N3CCNC3=O)c3ccccc3)C(=O)N2[C@H]1C(=O)O [Azlocillin] | – | – | – | – | 1 | Q4 | 1 | Fibrin % inhibition ([1]; compounds at 10 μM, 10 µM): −14%; LPS % inhibition [2, 12]: 6% |
| CCC(=O)NCC[C@@H]1CCc2ccc3c(c21)CCO3 [Ramelteon] | Q4 | 0 | – | – | 0 | – | – | inhibition at 10 µM [1, 6]: 25%; inhibition at 10 µM ([2]; 48 h): 20% |
| Cl.NCC(O)c1ccc(O)cc1 (racemic) | – | – | – | – | – | Q4 | 1 | Fibrin % inhibition ([1]; compounds at 10 μM): −48%; LPS % inhibition [2, 9]: 16%; LPS % cell toxicity (primary rat microglia [4]): 0% |
| NC(Cc1ccc(Cl)cc1)C(=O)O (racemic) [(±)-p-chlorophenylalanine, Fenclonine] | – | – | – | – | – | Q4 | 1 | Fibrin % inhibition ([1]; compounds at 10 μM): 16%; LPS % inhibition [2, 9]: 5%; LPS % cell toxicity (primary rat microglia [4]): 0% |
| CCN(CC)CCOC(=O)c1ccc(N)cc1 [Procaine, Novocain] | Q4 | 0 | – | – | – | – | – | Fibrin % inhibition [1, 6]: −10%; LPS % inhibition [2]: 25%; LPS % cell toxicity (primary rat microglia [4]): 0% |
| OCc1ccccn1 [Piconol] | Q4 | 1 | – | – | 1 | – | – | inhibition at 10 µM [1, 6]: -1%; inhibition at 10 µM ([2]; 48 h): 26% |
